Data from ChEMBL document CHEMBL5465560, “Selectivity Literature for EUbOPEN Chemogenomic Library” (2024).

Legend:
[1] = target: Mitogen-activated protein kinase 14 (Homo sapiens, UniProt Q16539); assay: Selectivity interaction (Kinase panel (Invitrogen)) EUB0000639a MAPK14; conditions: at 200 nM
[2] = target: Tyrosine-protein kinase JAK2 (Homo sapiens, UniProt O60674); assay: Selectivity interaction (KinomeScan (DiscoverX)) EUB0000695a JAK2; conditions: at 100 nM
[3] = target: Serine/threonine-protein kinase PAK 1 (Homo sapiens) (UniProt Q13153); assay: Selectivity interaction (KinomeScan (DiscoverX)) EUB0000595a PAK1; conditions: at 10 µM
Chain of Serine/threonine-protein kinase PAK 1 (Homo sapiens) (Q13153 whole entry): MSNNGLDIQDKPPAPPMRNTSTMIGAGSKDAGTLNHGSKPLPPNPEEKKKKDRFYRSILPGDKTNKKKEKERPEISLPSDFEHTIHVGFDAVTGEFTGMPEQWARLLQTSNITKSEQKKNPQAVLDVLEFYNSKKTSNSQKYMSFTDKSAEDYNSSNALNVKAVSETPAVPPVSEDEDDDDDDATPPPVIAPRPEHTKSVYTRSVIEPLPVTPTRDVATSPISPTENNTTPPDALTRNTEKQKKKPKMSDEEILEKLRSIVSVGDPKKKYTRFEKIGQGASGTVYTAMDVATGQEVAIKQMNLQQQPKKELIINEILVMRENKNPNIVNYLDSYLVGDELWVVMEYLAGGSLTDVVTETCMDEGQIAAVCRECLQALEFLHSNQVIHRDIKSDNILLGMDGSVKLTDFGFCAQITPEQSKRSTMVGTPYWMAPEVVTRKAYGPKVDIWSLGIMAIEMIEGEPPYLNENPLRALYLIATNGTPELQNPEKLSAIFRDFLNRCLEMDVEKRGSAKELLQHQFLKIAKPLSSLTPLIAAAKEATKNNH

[4] = target: Fibroblast growth factor receptor 2 (Homo sapiens) (UniProt P21802); assay: Selectivity interaction (Kinase screening (Nanosyn)) EUB0000604a FGFR2
Chain of Fibroblast growth factor receptor 2 (Homo sapiens) (P21802 22-821 limits assumed): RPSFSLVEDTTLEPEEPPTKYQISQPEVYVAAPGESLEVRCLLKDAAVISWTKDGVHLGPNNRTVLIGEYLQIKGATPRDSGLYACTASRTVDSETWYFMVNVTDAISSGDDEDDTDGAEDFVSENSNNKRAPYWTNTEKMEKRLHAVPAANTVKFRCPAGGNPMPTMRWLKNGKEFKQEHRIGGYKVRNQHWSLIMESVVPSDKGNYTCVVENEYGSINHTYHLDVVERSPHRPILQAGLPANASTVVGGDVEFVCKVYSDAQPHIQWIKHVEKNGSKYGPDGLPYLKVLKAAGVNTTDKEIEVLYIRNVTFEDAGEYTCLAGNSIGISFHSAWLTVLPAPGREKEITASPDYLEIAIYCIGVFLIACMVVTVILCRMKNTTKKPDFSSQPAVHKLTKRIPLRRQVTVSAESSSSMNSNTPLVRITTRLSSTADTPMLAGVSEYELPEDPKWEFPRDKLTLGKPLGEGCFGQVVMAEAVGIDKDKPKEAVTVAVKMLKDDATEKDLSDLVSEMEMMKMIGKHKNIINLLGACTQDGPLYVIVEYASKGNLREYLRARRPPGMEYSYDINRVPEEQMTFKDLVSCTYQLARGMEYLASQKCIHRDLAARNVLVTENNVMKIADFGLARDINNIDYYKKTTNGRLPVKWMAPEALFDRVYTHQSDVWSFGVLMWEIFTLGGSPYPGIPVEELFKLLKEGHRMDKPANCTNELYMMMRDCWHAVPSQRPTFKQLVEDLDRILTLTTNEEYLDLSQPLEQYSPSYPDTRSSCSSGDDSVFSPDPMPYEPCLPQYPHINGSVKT

[5] = target: Dual specificity protein kinase CLK3 (Homo sapiens, UniProt P49761); assay: Selectivity interaction (KinomeScan (DiscoverX)) EUB0000045b CLK3
Chain of Dual specificity protein kinase CLK3 (P49761 whole entry, looked up): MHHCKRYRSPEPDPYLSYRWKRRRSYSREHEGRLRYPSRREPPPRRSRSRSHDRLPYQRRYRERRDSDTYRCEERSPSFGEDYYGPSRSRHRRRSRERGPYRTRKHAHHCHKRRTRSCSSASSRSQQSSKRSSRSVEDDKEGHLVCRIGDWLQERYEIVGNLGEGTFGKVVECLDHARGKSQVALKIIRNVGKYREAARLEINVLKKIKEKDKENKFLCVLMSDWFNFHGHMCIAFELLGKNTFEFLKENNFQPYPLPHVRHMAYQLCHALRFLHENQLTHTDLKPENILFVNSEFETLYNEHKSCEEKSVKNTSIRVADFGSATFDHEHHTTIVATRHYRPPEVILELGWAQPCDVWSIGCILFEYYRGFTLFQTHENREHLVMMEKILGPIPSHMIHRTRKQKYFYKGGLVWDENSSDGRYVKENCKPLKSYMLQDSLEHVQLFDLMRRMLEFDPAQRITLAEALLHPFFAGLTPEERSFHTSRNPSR

[6] = target: T1, Serine/threonine-protein kinase ULK1 (Homo sapiens) (UniProt O75385); assay: Selectivity interaction (KinomeScan (DiscoverX)) EUB0000045b ULK1
T1 sequence (whole entry): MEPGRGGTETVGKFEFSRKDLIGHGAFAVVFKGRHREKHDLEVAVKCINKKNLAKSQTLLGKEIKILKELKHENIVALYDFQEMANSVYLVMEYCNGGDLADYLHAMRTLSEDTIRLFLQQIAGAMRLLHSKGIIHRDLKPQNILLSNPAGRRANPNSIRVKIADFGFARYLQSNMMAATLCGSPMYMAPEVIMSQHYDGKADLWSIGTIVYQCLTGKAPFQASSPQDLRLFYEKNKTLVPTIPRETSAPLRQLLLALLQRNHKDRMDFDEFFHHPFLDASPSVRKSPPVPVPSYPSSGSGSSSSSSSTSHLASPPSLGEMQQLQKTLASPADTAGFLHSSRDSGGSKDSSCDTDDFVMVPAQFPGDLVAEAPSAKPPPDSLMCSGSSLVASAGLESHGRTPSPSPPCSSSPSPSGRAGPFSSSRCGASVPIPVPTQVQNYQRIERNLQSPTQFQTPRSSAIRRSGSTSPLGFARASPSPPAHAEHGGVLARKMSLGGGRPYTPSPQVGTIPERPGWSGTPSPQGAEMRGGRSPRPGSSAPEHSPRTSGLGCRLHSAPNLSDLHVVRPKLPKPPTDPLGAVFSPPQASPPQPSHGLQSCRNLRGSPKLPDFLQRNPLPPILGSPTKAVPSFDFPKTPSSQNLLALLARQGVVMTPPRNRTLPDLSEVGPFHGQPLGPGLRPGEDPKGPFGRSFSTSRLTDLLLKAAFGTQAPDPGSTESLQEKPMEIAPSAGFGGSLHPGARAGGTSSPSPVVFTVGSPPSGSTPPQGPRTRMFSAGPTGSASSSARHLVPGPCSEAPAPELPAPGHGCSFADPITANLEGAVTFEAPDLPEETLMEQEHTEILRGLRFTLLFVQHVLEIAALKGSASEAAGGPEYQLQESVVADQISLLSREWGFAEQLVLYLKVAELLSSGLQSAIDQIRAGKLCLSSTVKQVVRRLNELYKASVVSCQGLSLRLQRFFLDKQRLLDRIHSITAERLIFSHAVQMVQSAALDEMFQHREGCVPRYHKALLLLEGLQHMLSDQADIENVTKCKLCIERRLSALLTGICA

[7] = target: T2, Scaffold protein ILK (Homo sapiens) (UniProt Q13418); assay: Selectivity interaction (Kinase panel (KiNativ target engagement assay in Jurkat cells)) EUB0001635a ILK; type: cell-based; conditions: Selectivity number of off-targets 0.0, Selectivity number of targets 233.0, Source Knowledge https://www.sciencedirect.com/science/article/pii/S2451945619300674?via%3Dihub, at 1 µM
T2 sequence (whole entry): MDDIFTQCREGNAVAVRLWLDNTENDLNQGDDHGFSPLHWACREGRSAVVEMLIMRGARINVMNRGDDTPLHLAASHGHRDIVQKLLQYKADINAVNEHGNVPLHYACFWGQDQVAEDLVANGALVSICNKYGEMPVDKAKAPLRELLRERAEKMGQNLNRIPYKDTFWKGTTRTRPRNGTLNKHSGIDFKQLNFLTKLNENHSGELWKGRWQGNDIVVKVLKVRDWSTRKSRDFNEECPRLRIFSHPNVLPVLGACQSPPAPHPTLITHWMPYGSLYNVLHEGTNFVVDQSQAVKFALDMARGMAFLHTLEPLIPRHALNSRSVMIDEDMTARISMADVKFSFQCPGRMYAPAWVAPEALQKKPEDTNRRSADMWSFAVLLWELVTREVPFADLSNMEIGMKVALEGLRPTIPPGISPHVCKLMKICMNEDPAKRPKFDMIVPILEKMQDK

[8] = target: T3, NUAK family SNF1-like kinase 2 (Homo sapiens) (UniProt Q9H093); assay: Selectivity interaction (KinomeScan (DiscoverX)) EUB0000229b NUAK2; conditions: at 10 µM
T3 sequence (whole entry): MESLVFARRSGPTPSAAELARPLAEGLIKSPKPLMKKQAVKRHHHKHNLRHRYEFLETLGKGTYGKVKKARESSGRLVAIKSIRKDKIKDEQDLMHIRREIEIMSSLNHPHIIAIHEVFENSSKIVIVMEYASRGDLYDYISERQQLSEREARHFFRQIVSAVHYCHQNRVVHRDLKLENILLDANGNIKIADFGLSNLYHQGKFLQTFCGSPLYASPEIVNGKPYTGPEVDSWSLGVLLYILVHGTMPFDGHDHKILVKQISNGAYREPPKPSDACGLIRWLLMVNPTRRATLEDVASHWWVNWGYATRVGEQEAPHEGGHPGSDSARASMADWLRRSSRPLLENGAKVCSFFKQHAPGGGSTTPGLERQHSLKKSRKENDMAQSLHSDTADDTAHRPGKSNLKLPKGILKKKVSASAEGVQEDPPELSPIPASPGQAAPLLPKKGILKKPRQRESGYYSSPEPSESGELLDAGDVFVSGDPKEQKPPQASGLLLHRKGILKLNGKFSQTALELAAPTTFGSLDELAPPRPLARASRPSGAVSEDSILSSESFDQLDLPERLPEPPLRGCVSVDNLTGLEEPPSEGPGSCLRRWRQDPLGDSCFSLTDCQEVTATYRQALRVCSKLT

Chain of Mitogen-activated protein kinase 14 (Q16539 whole entry): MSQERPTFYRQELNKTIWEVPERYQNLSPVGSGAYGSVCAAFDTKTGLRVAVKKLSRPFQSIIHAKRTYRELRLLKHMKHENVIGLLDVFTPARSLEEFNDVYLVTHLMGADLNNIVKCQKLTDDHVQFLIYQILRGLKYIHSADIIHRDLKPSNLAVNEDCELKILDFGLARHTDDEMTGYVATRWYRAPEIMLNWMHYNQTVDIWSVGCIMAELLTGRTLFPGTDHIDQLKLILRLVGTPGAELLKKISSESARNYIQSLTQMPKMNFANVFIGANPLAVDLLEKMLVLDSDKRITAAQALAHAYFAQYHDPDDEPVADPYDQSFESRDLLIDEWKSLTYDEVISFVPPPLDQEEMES
Chain of Tyrosine-protein kinase JAK2 (O60674 whole entry): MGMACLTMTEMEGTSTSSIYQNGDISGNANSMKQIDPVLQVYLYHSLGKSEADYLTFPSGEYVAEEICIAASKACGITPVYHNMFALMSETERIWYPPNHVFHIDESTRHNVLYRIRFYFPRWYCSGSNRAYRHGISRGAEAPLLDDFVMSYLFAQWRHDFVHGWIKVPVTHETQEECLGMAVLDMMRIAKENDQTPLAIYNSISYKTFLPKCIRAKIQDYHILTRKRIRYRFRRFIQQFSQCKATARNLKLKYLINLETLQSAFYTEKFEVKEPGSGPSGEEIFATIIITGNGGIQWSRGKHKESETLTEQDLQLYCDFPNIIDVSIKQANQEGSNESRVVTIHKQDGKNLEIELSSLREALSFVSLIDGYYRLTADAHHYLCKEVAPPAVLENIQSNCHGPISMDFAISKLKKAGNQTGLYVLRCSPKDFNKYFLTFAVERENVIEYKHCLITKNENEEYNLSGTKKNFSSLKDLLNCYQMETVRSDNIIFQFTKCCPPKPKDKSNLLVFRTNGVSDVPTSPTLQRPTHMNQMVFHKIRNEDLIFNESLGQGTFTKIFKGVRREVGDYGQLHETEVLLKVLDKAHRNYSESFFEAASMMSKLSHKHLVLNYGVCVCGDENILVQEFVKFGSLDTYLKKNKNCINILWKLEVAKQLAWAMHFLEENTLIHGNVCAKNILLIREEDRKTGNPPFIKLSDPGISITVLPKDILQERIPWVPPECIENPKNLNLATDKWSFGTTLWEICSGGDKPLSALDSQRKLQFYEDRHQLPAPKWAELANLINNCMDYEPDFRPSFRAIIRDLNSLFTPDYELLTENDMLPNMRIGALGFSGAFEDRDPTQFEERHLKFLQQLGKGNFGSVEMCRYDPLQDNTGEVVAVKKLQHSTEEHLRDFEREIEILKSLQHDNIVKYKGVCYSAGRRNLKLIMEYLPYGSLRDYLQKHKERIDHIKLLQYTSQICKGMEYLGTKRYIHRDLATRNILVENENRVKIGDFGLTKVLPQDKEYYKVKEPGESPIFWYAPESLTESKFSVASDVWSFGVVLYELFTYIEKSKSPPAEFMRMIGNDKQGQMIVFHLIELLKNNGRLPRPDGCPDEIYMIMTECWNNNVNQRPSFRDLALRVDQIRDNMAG

Question: For `CC[C@@H]1[C@H](F)C(=O)N[C@@H]1COc1nccc2cc(C(N)=O)c(OC)cc12` [ZIMLOVISERTIB], which % of inhibition [1] is on record?
Answer: 18.3%

Question: For `Cc1cc(F)c(C(=O)Nc2cccc(-c3nncn3C(C)C)n2)cc1-n1cnc(C2CC2)c1`, which % of control [2] is on record?
Answer: 85%

Question: How did the % of control [3] turn out when `COCC(=O)NC/C=C/c1ccc2ncnc(Nc3ccc(Oc4ccc(C)nc4)c(C)c3)c2c1` [CP-724714] was run?
Answer: 81%

Question: How did the % of inhibition [4] turn out when `Cc1cnc(Nc2ccc(F)cc2Cl)nc1-c1c[nH]c(C(=O)N[C@H](CO)c2cccc(Cl)c2)c1` was run?
Answer: 12%

Question: For `C=CC(=O)Nc1cc(-n2c(=O)ccc3cnc4ccc(-c5ccc(NS(C)(=O)=O)cc5)cc4c32)ccc1C`, which % of control ([5]; at 1 µM) is on record?
Answer: 100%

Question: What about the % of control ([5]; at 10 µM) of the same compound?
Answer: 98%

Question: What about the % of control ([6]; at 1 µM) of the same compound?
Answer: 84%

Question: What about the % of control ([6]; at 10 µM) of the same compound?
Answer: 100%

Question: With `C=CC(=O)Nc1ccc(C(=O)Nc2[nH]nc3c2CN(C(=O)N[C@H](CN(C)C)c2ccccc2)C3(C)C)cc1` as the compound, how does the % of engagement [7] read?
Answer: -11.5%

Question: For `COc1cc(N(C)c2ccnc3ccc(C(F)(F)F)cc23)cc(OC)c1OC`, which % binding [8] is on record?
Answer: 86%
